Measured values published in patent US9402875B2, “Amidated dopamine neuron stimulating peptide restoration of mitochondrial activity” (University of Kentucky Research Foundation, priority 2006, dated 2016).
Ends that are not written are not given here.

What was measured:
MN9D dopaminergic cells = assay: TUNEL assay, protection against 6-OHDA toxicity; type: cell-based; conditions: 1 ng/mL for 1 hour before 100 μM 6-OHDA for 15 min; at 24 h
Method: MN9D Cell Cultures: The MN9D cell line has been described by Choi (1991) Brain Res. 552:67-76 and was a gift from Michael Zigmond. Cells were cultured in DMEM supplemented with 10% Fetal Bovine Serum (FBS, Hyclone), 50 U/mL penicillin and streptomycin. For experiments, the cells were plated on 24-well poly-D-lysine in DMEM with 1% (v/v) penicillin-streptomycin. The cells were grown at 37° C. in 5% CO2.
Terminal dUTP Nick-End Labeling (TUNEL) Assay in MN9D Cells: After treatment with DNSP-11, MN9D cells were fixed and labelled to assess degenerative nuclear changes as indicated by the extent of high-molecular weight DNA strand breaks. DNA fragmentation was detected by using steptavidin-horseradish peroxidise conjugate followed by the substrate diaminobenzidine (DAB) generating a colored precipitate. Ratios between apoptotic and total cells were determined (4 random fields/well; 4 wells/ group). Experiments were repeated 3 times.
To evaluate DNSP-11's neuroprotective properties, DNSP-11 was compared to GDNF in its protection against 6-OHDA-induced toxicity in the dopaminergic cell line, MN9D. MN9D dopaminergic cells were incubated for 1 hour with either citrate buffer (control), 1 ng/mL of DNSP-11 or GDNF prior to 100 μM 6-OHDA exposure for 15 min. […]

Erk1/2 = assay: ERK1/2 activation by western blot; type: cell-based; conditions: DNSP-11 0.1 uM or 1 uM or GDNF 50 ng/ml for 20 minutes
Method: MN9D and B65 cell were cultured in DMEM; 11995 (containing pyridoxol HCl; Sigma, St. Louis, Mo.) supplemented with 10% fetal bovine serum (HyClone, Logan, Utah), 50 U/mL penicillin and streptomycin with DNSP-11 (0.1 uM or 1 uM) or GDNF (50 ng/ml) for 20 minutes. The cells were then solubilized in Triton-X-100/glycerol lysis buffer and subjected to electrophoresis and western blotting as partially described previously (Jiang et al., Mol Biol Cell 14:859-70 (2003)). To detect phosphorylated Erk (#4377 Cell Signaling) and ERK (#4696 Cell Signaling) by immunoblotting, the cells were directly lysed in the sample loading buffer. Secondary IRDye 700X and IRDye800 conjugated, fluorescent antibodies (Rockland Inc.) were used to detect signal with Odyssey v3.0 scanning software. Several blots were analyzed to determine the linear range of the fluorescence signals, and quantifications were performed using densitometry analysis.

[1] = biological target: T1, glyceraldehyde-3-phosphate dehydrogenase (GAPDH) (Rattus norvegicus, UniProt P04797); assay: DNSP-11 pull-down with substantia nigra homogenate, 2D-PAGE and MALDI-TOF MS; type: binding
T1 construct: homogenate from isolated substantia nigra of normal young Fischer 344 rats; from tissue; host or cells: substantia nigra of Fischer 344 rats (cytosolic and membrane fractions)
T1 sequence (P04797 whole entry): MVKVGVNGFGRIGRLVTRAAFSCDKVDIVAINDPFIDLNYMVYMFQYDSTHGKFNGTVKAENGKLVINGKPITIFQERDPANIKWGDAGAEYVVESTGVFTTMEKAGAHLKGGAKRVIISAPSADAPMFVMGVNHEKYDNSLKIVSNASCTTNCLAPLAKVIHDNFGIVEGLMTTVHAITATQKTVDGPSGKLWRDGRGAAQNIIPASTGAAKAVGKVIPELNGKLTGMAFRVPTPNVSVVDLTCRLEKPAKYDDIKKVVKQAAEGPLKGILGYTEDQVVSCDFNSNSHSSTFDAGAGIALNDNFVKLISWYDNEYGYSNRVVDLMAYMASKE
Method: DNSP-11 Pull-down analysis: The F344 substantia nigra was homogenized in homogenization buffer (modified from York et al. (2005) FASED J. 19: 1202-4 with 20 mM HEPES, pH 7.4) and cytosolic fraction (supernatant) collected after 30 minutes at 100,000 g. 50 μg of bDNSP-11 was incubated with fraction for 15 minutes on ice. Sample was added to streptavidin magnetic beads (New England Biolabs), pelleted, and washed four times in homogenization buffer. Bound proteins were eluted by Solubilization/Rehydration Solution (7 M Urea, 2 M Thiourea, 50 mM DTT, 4% CHAPS, 1% NP-40, 0.2% Carrier ampholytes, 0.0002% Bromophenol blue), and analyzed by 2D-PAGE and MALDI-TOF MS.
In order to identify the interactions of DNSP-11 with protein partners and to gain insight into the cellular mechanisms involved with the actions of DNSP-11, a pull-down assay was performed with homogenate from isolated substantia nigra of normal young Fischer 344 rats. Cytosolic and membrane fractions were collected and incubated with biotinylated DNSP-11 for 30 minutes. Bound proteins were pulled down by strepavidin magnetic beads, extensively washed to remove non-specific binders, eluted with solubilization/rehydration buffer and separated by 2D-PAGE.
To identify these binding partners, protein bands were excised from the gels, trypsin digested, and analyzed by MALDI-TOF mass spectrometry. […]

MN9D cells = assay: TUNEL staining, mitochondrial toxins; type: cell-based
Method: MN9D cells and B65 cells were cultured in Dulbecco's Modified Eagle's Medium (DMEM; 11995 (containing pyridoxol HCl); Sigma, St. Louis, Mo.) supplemented with 10% fetal bovine serum (HyClone, Logan, Utah), 50 U/mL penicillin and streptomycin. For each assay the cells were treated with mitochondrial-specific environmental toxins, i.e., MPP+, rotenone, and/or TaClo, and with or without DNSP-11. After incubation with the toxins, the cells were plated on 24-well poly-D-lysine plates (50,000 cells/well) for TUNEL assay (as described below) or 100,000 cell/well for caspase-3 assay in DMEM medium with 1% (v/v) penicillin-streptomycin only (as described below).
Terminal deoxynucleotidyl transferase mediated X-dUTP nicked end DNA labeling of cells (TUNEL staining) was used to assess cells undergoing apoptosis. […] The biotinylated nucleotides are detected by using streptavidin-horseradish peroxidase conjugate followed by the substrate, diaminobenzidine (DAB). […] Cell were counted with 20× magnification (4 random fields/well), 4 wells per group. Ratio between apoptotic cells and total cells was calculated. […]

PPEAPAEDRSL-NH2 [DNSP-11, PPEAPAEDRSL-amide]
percent of TUNEL positive cells (MN9D dopaminergic cells): significant reduction | phosphorylation of Erk1/2 (ratio of phosphorylated to non-phosphorylated) (Erk1/2; B65 cells): increases significantly | phosphorylation of Erk1/2 (ratio of phosphorylated to non-phosphorylated) (Erk1/2; MN9D cells): increases significantly | GAPDH as binding partner in pull-down ([1]; biotinylated DNSP-11, substantia nigra fractions, confirmed with pure GAPDH): identified | number of bound proteins identified ([1]; cytosolic and membrane fractions, preliminary studies): approximately 20 | TUNEL staining, protection from toxins (MN9D cells; MPP+, rotenone or TaClo 1 to 12 hours, pretreatment with 10 nM or 100 nM DNSP-11): significant protection | TUNEL staining, DNSP-11 alone (MN9D cells; no toxin): no significant effect
